Experimental data as given in patent US9623083B2, “Method to screen for an activator of adipose-resident NK cells” (Cornell University, priority 2011, dated 2017).

Assays:
[1] = system: adipose-resident NKT cells; assay: In vivo effectiveness as activator of adipose-resident NKT cells
[2] = system: M2 genes in adipose tissue; assay: Q-PCR analysis of M1 and M2 genes in white adipose tissue; type: in vivo, mice
Experimental: RNA extraction from cells and murine tissues, and Q-PCR were carried out as previously described (36) using Trizol (Invitrogen) for liver, and Trizol plus QIAeasy kit (Qiagen) for adipose tissues with DNase digestion (Roche). Q-PCR data collected on the Roche LightCycler 480 were normalized to ribosomal 132 gene in the corresponding sample.
(§1) Accordingly, 6 w-old male mice were fed with either 13% LFD or 60% HFD for indicated period of time from 4 d to 24 w as described in Example 1. αGalCer (Toronto Research Chemicals) was dissolved in pyridine at 2.5 mg/ml and then diluted 1:250 in PBS to prepare 10 μg/ml working solution prior to use. In all experiments, mice were injected i.p. with 200 μl αGalCer (100 ng αGalCer per g body weight). The vehicle control group was injected with PBS with 0.4% pyridine. The dosage and frequency of αGalCer injection were the same for all the gain-of-function experiments unless otherwise indicated. HFD mice were injected with αGalCer or vehicle at day 0 and day 2. GTT was conducted on day 4, followed by sacrificing the mice on (day 5) to harvest adipose tissues (or other tissues as indicated), which were processed for immune cell analysis, frozen for Q-PCR or Western blot, or fixed for H&E staining Flow cytometric analyses of NKT levels and other immune cells were performed on day 5.

[3] = Fasting insulin levels (ELISA); type: in vivo; conditions: 8 w HFD mice, FIG. 6D
Experimental: Blood was collected in animals upon 6 h fasting during the day. Circulating insulin levels were measured using the kit from Millipore per supplier's protocols.
(§2) For GTT, mice were fasted for 16-18 h followed by injection of glucose (Sigma) at 1 g/kg body weight. Blood glucose was monitored using One-Touch Ultra Glucometer. Fasting insulin levels were measured following a 6 h fast.

[4] = literature (Berzins 2011; Giaccone 2002); cited from earlier work
[5] = Glucose tolerance test (GTT) after αGalCer injection; type: in vivo, mice
Experimental: as §1, §2

[6] = system: gene expression in WAT; assay: Microarray analysis of WAT; type: in vivo, mice; conditions: 4 d HFD
Experimental: Microarray analyses of WAT were performed as described (39) with four groups of mice (n=3-4 per cohort) as follows: WT+veh, WT+αGalCer, CD1d^−/−+veh and CD1d^−/−+αGalCer. All mice were on 4 d HFD feeding with two αGalCer injections at day 0 and day 2. […] Data have been deposited into the GEO datasets (GSE36032). The array data of IL-4-treated mouse BMDM for 10 days were obtained from the Gene Expression Omnibus (GEO) database with accession number GSE25088 (Szanto A. et al. (2010)).

[7] = system: NKT cells in adipose tissue; assay: Flow cytometric analysis of immune cells in adipose tissue after αGalCer challenge; type: in vivo, mice
Experimental: Single-cell suspensions of stromal vascular cells (SVC) from adipose tissue were prepared as described (Xia et al. (2011)). SVCs from two fat pads per mouse were diluted in 120-200 μl PBS, from which one tenth was used for the subsequent staining Following incubation with anti-CD16/CD32 antibody to block Fc receptors, 1×10^6 cells were incubated with 20 μl of antibodies diluted at optimal concentrations for 20 min at 4° C. Cells were washed three times with PBS and then resuspended in 200 μl PBS for analysis using the FACSCalibur Flow Cytometer (BD Biosciences). NKT cells were defined as CD45^+αGalCer-loaded CD1d-tetramer^+CD3/TCRβ^+ lymphocytes; CD8^+ T cells were defined as CD8^+CD45^+ cells; macrophages were as CD45^+F4/80^+CD11b^+ cells. During the run, samples were completely run out and the total number of CD45^+ lymphocytes or immune cells were gated and counted. The total cell number for various immune cells per g adipose tissue was calculated as (% cells in total CD45^+ lymphocytes or immune cells×total CD45^+ lymphocytes or immune cells)/g adipose tissue.
For the Brdu staining, mice were injected (i.p.) with αGalCer (100 ng per g body weight) at day 0, and then with BrdU (Sigma, 0.6 mg/10 g body weight) at 36 h and 12 h prior to sacrifice at day 3. SVC of adipose tissues were purified, labeled with cell surface antibodies and then fixed in cold 70% ethanol at −20° C. overnight. The rest of steps were performed as the regular flow cytometric analysis using BrdU-FITC antibody and DNA dye 7-AAD (Anaspec).
as §1

[8] = system: Arg1 protein, p-Y STAT6; assay: Western blot of Arg1 and p-Y STAT6 in WAT and liver; type: in vivo, mice
Experimental: Tissues or cells were lysed in Tris-based lysis buffer containing 1% Triton X-100. Normally, 15-30 μg of total lysates unless otherwise indicated were used in a mini SDS-PAGE as described (Sha et al. (2009) Cell Metab 9, 556-564). Antibodies specific for (p-Tyr641) STATE and (p-Tyr705) STAT3 (Cell signaling) and Arginase 1 (N-20, Santa Cruz sc-18351) were used at 1:500-2000 and for the loading control HSP90 (Santa Cruz) was used at 1:6000. The secondary antibody goat anti-rabbit IgG HRP (1:10,000) was from Bio-Rad. Quantitation of band density was carried out using the ImageLab software of the Bio-Rad ChemiDoc XRS+system following exposure.
as §1

[9] = Body and epididymal fat weights; type: in vivo; conditions: HFD mice, FIG. 4B
Experimental: as §1

[10] = one injection of αGalCer, Ohmura et al. (2010); cited from earlier work
[11] = system: cells surrounding adipocytes; assay: H&E histology of adipose tissue; type: in vivo, mice; conditions: WT, 4 d HFD, FIG. 3D; abolished by CD1d deficiency
Experimental: Adipose tissues were fixed in 4% formaldehyde, embedded in paraffin and sectioned by the Cornell Histology Core Facility. Pictures were taken using the Axiovert 200M microscope (Zeiss).
as §1

**Q.** Which effectiveness in vivo [1] does the source give for CCCCCCCCCCCCCCCCCCCCCCCC(=O)NC(COC1O[C@H](CO)[C@H](O)[C@H](O)[C@H]1O)C(O)C(O)CCCCCC (stereo partly shown) [OCH, tetracosanoic acid 1-galactopyranosyloxy-3,4-dihydroxydec-2-yl amide] here?
**A.** not effective in vivo

**Q.** Which “Il4 mRNA levels in WAT” value ([2]; 4 d HFD, NKT-dependent, FIG. 9F) does the source give for CCCCCCCCCCCCCCCCCCCCCCCCCC(=O)N[C@@H](CO[C@H]1O[C@H](CO)[C@H](O)[C@H](O)[C@H]1O)[C@H](O)[C@H](O)CCCCCCCCCCCCCC [αGalCer, (2S,3S,4R)-1-O-(alpha-D-galactosyl)-N-hexacosanoyl-2-amino-1,3,4-octadecanetriol] here?
**A.** highly induced

**Q.** And the “αGalCer-mediated induction of M2 genes in WAT of myeloid cell-specific PPARγ or PPARβ/δ-deficient animals” value ([2]; 4 day HFD, vs WT control littermates, FIG. 12C)?
**A.** not affected

**Q.** What about the “αGalCer-mediated induction of M2 genes Arg1, Chi3l3, Pdcd1Ig2 and Arg1 protein in WAT with loss of IL-4” value ([2]; IL-4-/- mice, 4 d HFD, FIG. 11D-F) of the same molecule?
**A.** markedly attenuated

**Q.** And the “induction of a subset of M2 genes (Arg1, Chi313, Pdcd1Ig2) in adipose tissue” value ([2]; all three HFD models, NKT-dependent, FIGS. 7A-B and 8A)?
**A.** 50-100 fold

**Q.** And the “effect on fasting insulin levels” value [3]?
**A.** no effect

**Q.** And the tolerability in humans [4]?
**A.** well tolerated

**Q.** What about the toxicity [4] of the same molecule?
**A.** not toxic

**Q.** What about the “effect on glucose tolerance in CD1d-/- mice” value ([5]; CD1d-/- mice, 4 d HFD, FIG. 6E) of the same molecule?
**A.** no effect

**Q.** What about the “αGalCer effect in glucose tolerance in IL-4-/- mice” value ([5]; IL-4-/- mice, 4 d HFD, FIG. 11B-C) of the same molecule?
**A.** completely abolished

**Q.** What about the systemic glucose tolerance ([5]; WT mice at all stages of HFD (4 d, 8 w, 24 w), FIGS. 6A-C) of the same molecule?
**A.** improved systemic glucose tolerance

**Q.** What about the “effect on glucose tolerance in mice on LFD” value ([5]; WT mice on LFD, FIG. 6F) of the same molecule?
**A.** no effect on glucose tolerance

**Q.** And the “number of genes whose expression was significantly increased by more than 2-fold in WAT” value ([6]; WT vs CD1d-/-, NKT-dependent, FIG. 9A)?
**A.** 1,556 genes

**Q.** And the “Arg1 expression, αGalCer vs. veh in WT WAT” value ([6]; microarray, FIG. 9B)?
**A.** 32 fold

**Q.** And the “Chi313 expression, αGalCer vs. veh in WT WAT” value ([6]; microarray, FIG. 9B)?
**A.** 138 fold

**Q.** And the “pdcd1Ig2 expression, αGalCer vs. veh in WT WAT” value ([6]; microarray, FIG. 9B)?
**A.** 53 fold

**Q.** And the “macrophages and CD8+ T cells in adipose tissue” value ([7]; 4 d HFD mice, FIG. 5A)?
**A.** milder increases

**Q.** What about the “increase in percentage of NKT cells in adipose tissue” value ([7]; 4 d HFD mice, αGalCer 100 ng per g body weight i.p. day 0 and day 2, FIG. 3C) of the same molecule?
**A.** > 4 fold

**Q.** What about the “increase in total cell number of NKT cells in adipose tissue” value ([7]; 4 d HFD mice, αGalCer i.p. day 0 and day 2, FIG. 5A) of the same molecule?
**A.** 70 fold

**Q.** And the “reduction of total lymphocytes in WAT of IL-4-/- mice relative to WT cohorts after αGalCer” value ([7]; 4 d HFD, FIG. 12B)?
**A.** approximately 40%

**Q.** And the “Arg1 protein in CD1d-/- WAT” value ([8]; CD1d-/- mice, FIG. 7C-D)?
**A.** abolished

**Q.** What about the “tyrosine phosphorylation (p-Y) of STAT6 in WAT following αGalCer with loss of IL-4” value ([8]; IL-4-/- mice, 4 d HFD, FIG. 11E-F) of the same molecule?
**A.** completely abolished

**Q.** What about the “Arg1 protein in WT WAT” value ([8]; WT mice, HFD, FIG. 7C-D) of the same molecule?
**A.** significantly induced

**Q.** And the “hepatic STAT6 activation” value ([8]; liver of WT mice, 4 d HFD, FIG. 11G)?
**A.** not activated

**Q.** And the “Arg1 protein induction in the liver” value ([8]; liver, 4 d or 8 w HFD, FIG. 8B)?
**A.** not observed in the liver

**Q.** What about the “effect on body and epididymal fat weights” value [9] of the same molecule?
**A.** no discernible effect

**Q.** What about the “effect on glucose tolerance in HFD animals” value [10] of the same molecule?
**A.** mild effect

**Q.** And the “number of cells surrounding adipocytes in WAT sections” value [11]?
**A.** significant increase
